{"source": "patent US20090311237A1", "about": "“Combination therapy using a soluble hyaluronidase and a bisphosphonate” (priority 2008, published 2009)", "experiment": "Phase 1 Stage 1 clinical pharmacokinetics of SC ZA co-administered with rHuPH20", "format": "in vivo, human", "details": "human, serum, sc; for AUC(0-t): AUC (0-48 h); for AUC(0-t) / Cmax / AUC(0-inf) / Tmax: ZA […] SC; for AUC(0-inf): read-out: AUC (0-inf); for Tmax: read-out: Tmax; for concentration at 0 h: 0 h post infusion; for concentration at 10 min: 10 min post infusion; for concentration at 0.5 h: 0.5 h post infusion; for concentration at 1 h: 1 h post infusion; for concentration at 2 h: 2 h post infusion; for concentration at 4 h: 4 h post infusion; for concentration at 6 h: 6 h post infusion; for concentration at 8 h: 8 h post infusion", "experimental": "A pharmacokinetic study of zoledronic acid (ZA) co-administered with rHuPH20 in human subjects was conducted. The primary objective of the study was to determine the bioavailability of zoledronic acid dosed via subcutaneous (SC) co-administration with human recombinant hyaluronidase PH20 (rHuPH20). […] The patients were administered the prescribed dosage formulations as follows: Cohorts 1-5 were administered a single subcutaneous infusion in a dosage volume of 100 ml at a rate of 3 mL/min. […] The dosing solution is administered via needle or catheter into the SC space of the left anterior thigh (midway between the anterior iliac crest and the cephalad border of the patella). For cohorts 1-5, the dosing solutions were administered by a controlled rate infusion pump at approximately 3 mL/minute. […] The dosing solutions were administered by syringe push bolus injection. […] Serum concentration of ZA was determined using a qualified LC-MS-MS assay after derivatization with diazomethane (Zhu, L S et al. (2006) Rapid Commun. […] The assay range was from 2.0 to 400 ng/mL with a lower limit of quantitation (LLOQ) at 2.0 ng/mL. […] Non-compartmental analysis was used for derivation of primary and secondary pharmacokinetic (PK) parameters. […] Summary statistics (mean, standard deviation, and median) were calculated using JMP or Microsoft Excel.", "key": {"[1]": {"details": "Subj 21, inf 0.556 hr, PH20 24000 U"}, "[2]": {"details": "Subj 25, inf 0.549 hr, PH20 23736 U"}, "[3]": {"details": "Subj 31, inf 0.554 hr, PH20 23952 U"}, "[4]": {"details": "Subj 32, inf 0.556 hr, PH20 24000 U"}, "[5]": {"details": "Subj 51, inf 0.251 hr, PH20 6024 U"}, "[6]": {"details": "Subj 1, inf 0.554 hr, PH20 23928 U"}, "[7]": {"details": "Subj 8, inf 0.531 hr, PH20 22944 U"}, "[8]": {"details": "Subj 11, inf 0.554 hr, PH20 23928 U"}, "[9]": {"details": "Subj 16, inf 0.553 hr, PH20 23904 U"}, "[10]": {"details": "ZA 0.25 mg SC infusion + 24000 Units rHuPH20, individual subjects, read-out: Zoledronic Acid Concentration"}, "[11]": {"details": "ZA 0.25 mg SC infusion + 24000 Units rHuPH20, n=3, read-out: Mean Conc."}, "[12]": {"details": "ZA 0.25 mg SC infusion + 24000 Units rHuPH20, n=3, read-out: Median Conc."}, "[13]": {"details": "ZA 0.5 mg SC infusion + 24000 Units rHuPH20, individual subjects, read-out: Zoledronic Acid Concentration"}, "[14]": {"details": "ZA 0.5 mg SC infusion + 24000 Units rHuPH20, n=3, read-out: Mean Conc."}, "[15]": {"details": "ZA 0.5 mg SC infusion + 24000 Units rHuPH20, n=3, read-out: Median Conc."}}, "note": "Like-named read-outs stand apart in the source and are kept apart here.", "data": [{"smiles": "O=P(O)(O)C(O)(Cn1ccnc1)P(=O)(O)O", "note": "[ZA, 1-hydroxy-2-(1H-imidazol-1-yl)ethylidene-1,1-bisphosphonic acid]", "values": [{"measurement": "AUC(0-t)", "setting": "Subj 18, inf […], PH20 23304 U", "value": 69.8, "unit": "ng·h/mL"}, {"measurement": "AUC(0-t)", "setting": "[1]", "value": 66.1, "unit": "ng·h/mL"}, {"measurement": "AUC(0-t)", "setting": "[2]", "value": 115, "unit": "ng·h/mL"}, {"measurement": "AUC(0-t)", "setting": "Subj 26, inf […], PH20 23088 U", "value": 150, "unit": "ng·h/mL"}, {"measurement": "AUC(0-t)", "setting": "[3]", "value": 234, "unit": "ng·h/mL"}, {"measurement": "AUC(0-t)", "setting": "[4]", "value": 277, "unit": "ng·h/mL"}, {"measurement": "AUC(0-t)", "setting": "[5]", "value": 471, "unit": "ng·h/mL"}, {"measurement": "AUC(0-t)", "setting": "Subj 77, inf […], PH20 6000 U", "value": 618, "unit": "ng·h/mL"}, {"measurement": "Cmax", "setting": "[6]", "value": 7.75, "unit": "ng/mL"}, {"measurement": "AUC(0-inf)", "setting": "[6]", "value": 29.9, "unit": "ng·h/mL"}, {"measurement": "Tmax", "setting": "[6]", "value": 1.02, "unit": "h"}, {"measurement": "Cmax", "setting": "[7]", "value": 5.67, "unit": "ng/mL"}, {"measurement": "AUC(0-inf)", "setting": "[7]", "value": 32.6, "unit": "ng·h/mL"}, {"measurement": "Tmax", "setting": "[7]", "value": 1.41, "unit": "h"}, {"measurement": "Cmax", "setting": "[8]", "value": 6.84, "unit": "ng/mL"}, {"measurement": "AUC(0-inf)", "setting": "[8]", "value": 30.8, "unit": "ng·h/mL"}, {"measurement": "Tmax", "setting": "[8]", "value": 1.25, "unit": "h"}, {"measurement": "Cmax", "setting": "[9]", "value": 15.3, "unit": "ng/mL"}, {"measurement": "AUC(0-inf)", "setting": "[9]", "value": 62.5, "unit": "ng·h/mL"}, {"measurement": "Tmax", "setting": "[9]", "value": 0.8, "unit": "h"}, {"measurement": "Cmax", "setting": "Subj 18, inf […], PH20 23304 U", "value": 17.1, "unit": "ng/mL"}, {"measurement": "AUC(0-inf)", "setting": "Subj 18, inf […], PH20 23304 U", "value": 68.1, "unit": "ng·h/mL"}, {"measurement": "Tmax", "setting": "Subj 18, inf […], PH20 23304 U", "value": 1.29, "unit": "h"}, {"measurement": "Cmax", "setting": "[1]", "value": 14.2, "unit": "ng/mL"}, {"measurement": "AUC(0-inf)", "setting": "[1]", "value": 64.3, "unit": "ng·h/mL"}, {"measurement": "Tmax", "setting": "[1]", "value": 1.31, "unit": "h"}, {"measurement": "Cmax", "setting": "[2]", "value": 30.1, "unit": "ng/mL"}, {"measurement": "AUC(0-inf)", "setting": "[2]", "value": 117, "unit": "ng·h/mL"}, {"measurement": "Tmax", "setting": "[2]", "value": 1.3, "unit": "h"}, {"measurement": "Cmax", "setting": "Subj 26, inf […], PH20 23088 U", "value": 33.4, "unit": "ng/mL"}, {"measurement": "AUC(0-inf)", "setting": "Subj 26, inf […], PH20 23088 U", "value": 153, "unit": "ng·h/mL"}, {"measurement": "Tmax", "setting": "Subj 26, inf […], PH20 23088 U", "value": 1.03, "unit": "h"}, {"measurement": "Cmax", "setting": "[3]", "value": 53, "unit": "ng/mL"}, {"measurement": "AUC(0-inf)", "setting": "[3]", "value": 239, "unit": "ng·h/mL"}, {"measurement": "Tmax", "setting": "[3]", "value": 1.54, "unit": "h"}, {"measurement": "Cmax", "setting": "[4]", "value": 58.7, "unit": "ng/mL"}, {"measurement": "AUC(0-inf)", "setting": "[4]", "value": 295, "unit": "ng·h/mL"}, {"measurement": "Tmax", "setting": "[4]", "value": 1.56, "unit": "h"}, {"measurement": "Cmax", "setting": "[5]", "value": 95.4, "unit": "ng/mL"}, {"measurement": "AUC(0-inf)", "setting": "[5]", "value": 508, "unit": "ng·h/mL"}, {"measurement": "Tmax", "setting": "[5]", "value": 0.52, "unit": "h"}, {"measurement": "Cmax", "setting": "Subj 77, inf […], PH20 6000 U", "value": 147, "unit": "ng/mL"}, {"measurement": "AUC(0-inf)", "setting": "Subj 77, inf […], PH20 6000 U", "value": 678, "unit": "ng·h/mL"}, {"measurement": "Tmax", "setting": "Subj 77, inf […], PH20 6000 U", "value": 0.75, "unit": "h"}, {"measurement": "concentration at 0 h", "setting": "[10]", "value": 4.5, "unit": "ng/mL"}, {"measurement": "concentration at 0 h", "setting": "[11]", "value": 4.74, "unit": "ng/mL"}, {"measurement": "concentration at 0 h", "setting": "[12]", "value": 4.69, "unit": "ng/mL"}, {"measurement": "concentration at 10 min", "setting": "[10]", "value": 7.43, "unit": "ng/mL"}, {"measurement": "concentration at 10 min", "setting": "[11]", "value": 5.76, "unit": "ng/mL"}, {"measurement": "concentration at 10 min", "setting": "[12]", "value": 4.97, "unit": "ng/mL"}, {"measurement": "concentration at 0.5 h", "setting": "[10]", "value": 7.75, "unit": "ng/mL"}, {"measurement": "concentration at 0.5 h", "setting": "[11]", "value": 6.39, "unit": "ng/mL"}, {"measurement": "concentration at 0.5 h", "setting": "[12]", "value": 6.25, "unit": "ng/mL"}, {"measurement": "concentration at 1 h", "setting": "[10]", "value": 7.25, "unit": "ng/mL"}, {"measurement": "concentration at 1 h", "setting": "[11]", "value": 6.51, "unit": "ng/mL"}, {"measurement": "concentration at 1 h", "setting": "[12]", "value": 6.6, "unit": "ng/mL"}, {"measurement": "concentration at 2 h", "setting": "[10]", "value": 5.42, "unit": "ng/mL"}, {"measurement": "concentration at 2 h", "setting": "[11]", "value": 5.06, "unit": "ng/mL"}, {"measurement": "concentration at 2 h", "setting": "[12]", "value": 5.42, "unit": "ng/mL"}, {"measurement": "concentration at 4 h", "setting": "[10]", "value": 2.56, "unit": "ng/mL"}, {"measurement": "concentration at 4 h", "setting": "[11]", "value": 3.02, "unit": "ng/mL"}, {"measurement": "concentration at 4 h", "setting": "[12]", "value": 3.06, "unit": "ng/mL"}, {"measurement": "concentration at 6 h", "setting": "[10]", "value": 1.2, "unit": "ng/mL"}, {"measurement": "concentration at 6 h", "setting": "[11]", "value": 1.52, "unit": "ng/mL"}, {"measurement": "concentration at 6 h", "setting": "[12]", "value": 1.35, "unit": "ng/mL"}, {"measurement": "concentration at 8 h", "setting": "[10]", "value": 0.56, "unit": "ng/mL"}, {"measurement": "concentration at 8 h", "setting": "[11]", "value": 0.82, "unit": "ng/mL"}, {"measurement": "concentration at 8 h", "setting": "[12]", "value": 0.79, "unit": "ng/mL"}, {"measurement": "concentration at 0 h", "setting": "[13]", "value": 10.8, "unit": "ng/mL"}, {"measurement": "concentration at 0 h", "setting": "[14]", "value": 11.8, "unit": "ng/mL"}, {"measurement": "concentration at 0 h", "setting": "[15]", "value": 11.1, "unit": "ng/mL"}, {"measurement": "concentration at 10 min", "setting": "[13]", "value": 15, "unit": "ng/mL"}, {"measurement": "concentration at 10 min", "setting": "[14]", "value": 15, "unit": "ng/mL"}, {"measurement": "concentration at 10 min", "setting": "[15]", "value": 15, "unit": "ng/mL"}, {"measurement": "concentration at 0.5 h", "setting": "[13]", "value": 13.8, "unit": "ng/mL"}, {"measurement": "concentration at 0.5 h", "setting": "[14]", "value": 14.4, "unit": "ng/mL"}, {"measurement": "concentration at 0.5 h", "setting": "[15]", "value": 13.8, "unit": "ng/mL"}, {"measurement": "concentration at 1 h", "setting": "[13]", "value": 14.1, "unit": "ng/mL"}, {"measurement": "concentration at 1 h", "setting": "[14]", "value": 14.3, "unit": "ng/mL"}, {"measurement": "concentration at 1 h", "setting": "[15]", "value": 14.1, "unit": "ng/mL"}, {"measurement": "concentration at 2 h", "setting": "[13]", "value": 11.1, "unit": "ng/mL"}, {"measurement": "concentration at 2 h", "setting": "[14]", "value": 11.1, "unit": "ng/mL"}, {"measurement": "concentration at 2 h", "setting": "[15]", "value": 11.1, "unit": "ng/mL"}, {"measurement": "concentration at 4 h", "setting": "[13]", "value": 5.27, "unit": "ng/mL"}, {"measurement": "concentration at 4 h", "setting": "[14]", "value": 5.72, "unit": "ng/mL"}, {"measurement": "concentration at 4 h", "setting": "[15]", "value": 5.87, "unit": "ng/mL"}, {"measurement": "concentration at 6 h", "setting": "[13]", "value": 2.5, "unit": "ng/mL"}, {"measurement": "concentration at 6 h", "setting": "[14]", "value": 2.69, "unit": "ng/mL"}]}]}
